Reference: patent publication US20120088759A1, “THIAZOLIDIN-4-ONE AND [1,3]-THIAZINAN-4-ONE COMPOUNDS AS OREXIN RECEPTOR ANTAGONISTS” (priority 2009, published 2012)

Legend:
human orexin-2 receptor = target: T1, human orexin-2 receptor (Homo sapiens, UniProt O43614); assay: FLIPR intracellular calcium assay, orexin receptor antagonistic activity (OX2); assay type: cell-based; settings: CHO cells expressing human orexin-2 receptor; 3 nM orexin-A; normalized to on-plate reference; *n = geometric mean from n values
T1 construct: expressed in transfected cells; host or cells: CHO (Chinese hamster ovary) cells, kept under G418
T1 sequence (O43614 1-444): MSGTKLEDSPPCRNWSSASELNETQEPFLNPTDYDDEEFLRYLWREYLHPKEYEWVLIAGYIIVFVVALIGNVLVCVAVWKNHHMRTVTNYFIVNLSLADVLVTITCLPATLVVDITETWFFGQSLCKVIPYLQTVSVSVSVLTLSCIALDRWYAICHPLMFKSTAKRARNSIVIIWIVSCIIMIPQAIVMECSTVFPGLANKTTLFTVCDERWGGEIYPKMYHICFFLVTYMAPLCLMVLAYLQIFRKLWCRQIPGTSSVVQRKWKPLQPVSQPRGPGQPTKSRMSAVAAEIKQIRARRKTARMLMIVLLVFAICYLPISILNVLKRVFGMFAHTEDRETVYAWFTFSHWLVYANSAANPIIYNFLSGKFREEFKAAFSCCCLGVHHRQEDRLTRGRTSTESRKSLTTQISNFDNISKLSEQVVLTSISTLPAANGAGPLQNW
Procedure: (§1) The orexin receptor antagonistic activity of the compounds of formula (I) is determined in accordance with the following experimental method.
(§2) Chinese hamster ovary (CHO) cells expressing the human orexin-1 receptor and the human orexin-2 receptor, respectively, are grown in culture medium (Ham F-12 with L-Glutamine) containing 300 μg/ml G418, 100 U/ml penicillin, 100 μg/ml streptomycin and 10% heat inactivated fetal calf serum (FCS). The cells are seeded at 20′000 cells/well into 384-well black clear bottom sterile plates (Greiner). The seeded plates are incubated overnight at 37° C. in 5% CO2.
(§3) Human orexin-A as an agonist is prepared as 1 mM stock solution in MeOH:water (1:1), diluted in HBSS containing 0.1% bovine serum albumin (BSA), NaHCO3: 0.375 g/l and 20 mM HEPES for use in the assay at a final concentration of 3 nM.
(§4) Antagonists are prepared as 10 mM stock solution in DMSO, then diluted in 384-well plates using DMSO followed by a transfer of the dilutions into in HBSS containing 0.1% bovine serum albumin (BSA), NaHCO3: 0.375 g/l and 20 mM HEPES. On the day of the assay, 50 μl of staining buffer (HBSS containing 1% FCS, 20 mM HEPES, NaHCO3: 0.375 g/l, 5 mM probenecid (Sigma) and 3 μM of the fluorescent calcium indicator fluo-4 AM (1 mM stock solution in DMSO, containing 10% pluronic) is added to each well. The 384-well cell-plates are incubated for 50 min at 37° C. in 5% CO2 followed by equilibration at rt for 30-120 min before measurement.
(§5) Within the Fluorescent Imaging Plate Reader (FLIPR Tetra, Molecular Devices), antagonists are added to the plate in a volume of 10 μl/well, incubated for 10 min and finally 10 μl/well of agonist is added. Fluorescence is measured for each well at 1 second intervals, and the height of each fluorescence peak is compared to the height of the fluorescence peak induced by 3 nM orexin-A with vehicle in place of antagonist. For each antagonist, the IC50 value (the concentration of compound needed to inhibit 50% of the agonistic response) is determined and normalized using the obtained IC50 value of a on-plate reference compound. Optimized conditions were achieved by adjustment of pipetting speed and cell splitting regime. The calculated IC50 values of the compounds may fluctuate depending on the daily cellular assay performance. Fluctuations of this kind are known to those skilled in the art.

human orexin-1 receptor = target: T2, human orexin-1 receptor (Homo sapiens, UniProt O43613); assay: FLIPR intracellular calcium assay, orexin receptor antagonistic activity (OX1); assay type: cell-based; settings: CHO cells expressing human orexin-1 receptor; 3 nM orexin-A; normalized to on-plate reference; *n = geometric mean from n values
T2 construct: expressed in transfected cells; host or cells: CHO (Chinese hamster ovary) cells, kept under G418
T2 sequence (O43613 1-425): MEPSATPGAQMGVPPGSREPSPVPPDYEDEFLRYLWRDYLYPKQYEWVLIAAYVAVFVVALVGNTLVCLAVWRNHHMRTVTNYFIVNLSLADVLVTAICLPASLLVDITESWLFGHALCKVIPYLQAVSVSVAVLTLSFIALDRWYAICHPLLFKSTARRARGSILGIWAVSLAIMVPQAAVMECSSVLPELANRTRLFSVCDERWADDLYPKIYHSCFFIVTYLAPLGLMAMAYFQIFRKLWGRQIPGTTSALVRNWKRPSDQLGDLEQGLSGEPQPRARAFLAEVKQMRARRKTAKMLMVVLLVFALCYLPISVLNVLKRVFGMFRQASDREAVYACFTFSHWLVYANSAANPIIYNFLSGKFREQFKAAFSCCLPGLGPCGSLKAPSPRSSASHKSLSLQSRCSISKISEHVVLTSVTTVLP
Procedure: as §1, §2, §3, §4, §5

Compound	IC50 (human orexin-2 receptor)	IC50 (human orexin-1 receptor)
CCOc1ccc(CN2C(=O)CSC2c2c(OC)cccc2OCC)cc1 (stereo not drawn) [Example 15, 3-(4-Ethoxy-benzyl)-2-(2-ethoxy-6-methoxy-phenyl)-thiazolidin-4-one]	48 nM	853 nM
CCOc1ccccc1C1SCCC(=O)N1Cc1ccccc1OC(F)F (stereo not drawn) [Example 40, 3-(2-Difluoromethoxy-benzyl)-2-(2-ethoxy-phenyl)-[1,3]thiazinan-4-one]	68 nM	1310 nM
CCOc1ccc(CN2C(=O)CSC2c2c(OC)ccc3c2OCCO3)cc1 (stereo not drawn) [Example 9, 3-(4-Ethoxy-benzyl)-2-(6-methoxy-2,3-dihydro-benzo[1,4]dioxin-5-yl)-thiazolidin-4-one]	39 nM	326 nM
COc1cccc(OC)c1C1SCC(=O)N1Cc1ccc(Oc2ccc(C)nn2)cc1 (stereo not drawn) [Example 280, 2-(2,6-Dimethoxy-phenyl)-3-[4-(6-methyl-pyridazin-3-yloxy)-benzyl]-thiazolidin-4-one]	121 nM	1740 nM
COc1cc(C2SC(C)C(=O)N2Cc2nc3ccccc3[nH]2)ccc1OCc1ccccc1 (stereo not drawn) [Example 265, 3-(1H-Benzoimidazol-2-ylmethyl)-2-(4-benzyloxy-3-methoxy-phenyl)-5-methyl-thiazolidin-4-one]	533 nM	2630 nM
COc1cccc(OC)c1C1SCC(=O)N1Cc1ccc(Oc2ccc(C)cn2)cc1 (stereo not drawn) [Example 281, 2-(2,6-Dimethoxy-phenyl)-3-[4-(5-methyl-pyridin-2-yloxy)-benzyl]-thiazolidin-4-one]	61 nM	781 nM
CCOc1ccc(CN2C(=O)CSC2c2c(OC)ccc3nc(C)oc23)cc1 (stereo not drawn) [Example 20, 3-(4-Ethoxy-benzyl)-2-(6-methoxy-2-methyl-benzooxazol-7-yl)-thiazolidin-4-one]	342 nM	1560 nM
COc1cccc(OC)c1C1SCC(=O)N1Cc1ccc(Oc2cncnc2)cc1 (stereo not drawn) [Example 276, 2-(2,6-Dimethoxy-phenyl)-3-[4-(pyrimidin-5-yloxy)-benzyl]-thiazolidin-4-one]	121 nM	1590 nM
CCOc1ccc(CN2C(=O)CSC2c2c(OC)ccc3c(C)noc23)cc1 (stereo not drawn) [Example 19, 3-(4-Ethoxy-benzyl)-2-(6-methoxy-3-methyl-benzo[d]isoxazol-7-yl)-thiazolidin-4-one]	153 nM	8120 nM
COc1ccc(CN2C(=O)CSC2c2c(OC)cccc2OC)cc1 (stereo not drawn) [Example 1, 2-(2,6-Dimethoxy-phenyl)-3-(4-methoxy-benzyl)-thiazolidin-4-one]	104 nM	309 nM
2-[2-(2-Hydroxy-ethoxy)-6-methoxy-phenyl]-3-(4-isopropoxy-benzyl)-thiazolidin-4-on [Example 269]	25 nM	2060 nM
COc1cc(C)cc(OC)c1C1SC(C)C(=O)N1Cc1ccc(OC(F)(F)F)cc1 (stereo not drawn) [Example 35, 2-(2,6-Dimethoxy-4-methyl-phenyl)-5-methyl-3-(4-trifluoromethoxy-benzyl)-thiazolidin-4-one]	130 nM	170 nM
COc1cccc(OC)c1C1SCC(=O)N1Cc1ccc(Oc2cccc(C)n2)cc1 (stereo not drawn) [Example 283, 2-(2,6-Dimethoxy-phenyl)-3-[4-(6-methyl-pyridin-2-yloxy)-benzyl]-thiazolidin-4-one]	51 nM	942 nM
COc1cccc(OC)c1C1SCC(=O)N1Cc1cccc(OC(F)(F)F)c1 (stereo not drawn) [Example 119, 2-(2,6-Dimethoxy-phenyl)-3-(3-trifluoromethoxy-benzyl)-thiazolidin-4-one]	61 nM	355 nM
COc1cccc(Oc2ccc(CN3C(=O)CSC3c3c(OC)cccc3OC)cc2)n1 (stereo not drawn) [Example 282, 2-(2,6-Dimethoxy-phenyl)-3-[4-(6-methoxy-pyridin-2-yloxy)-benzyl]-thiazolidin-4-one]	127 nM	1950 nM

Now from value to compound:

IC50 (human orexin-2 receptor)	IC50 (human orexin-1 receptor)	Compound
6 nM	166 nM	COc1cccc(OC)c1C1N(Cc2ccc(OC(F)(F)F)cc2)C(=O)CS1(=O)=O (stereo not drawn) [Example 288, 2-(2,6-Dimethoxy-phenyl)-1,1-dioxo-3-(4-trifluoromethoxy-benzyl)-thiazolidin-4-one]
23 nM	83 nM	COc1cccc(OC)c1C1SCC(=O)N1Cc1ccc2ccccc2c1 (stereo not drawn) [Example 8, 2-(2,6-Dimethoxy-phenyl)-3-naphthalen-2-ylmethyl-thiazolidin-4-one]
33 nM	171 nM	COc1cc(F)cc(OC)c1C1SC(C)C(=O)N1Cc1ccc(OC(F)(F)F)cc1 (stereo not drawn) [Example 36, 2-(4-Fluoro-2,6-dimethoxy-phenyl)-5-methyl-3-(4-trifluoromethoxy-benzyl)-thiazolidin-4-one]
30 nM	11 nM	COc1ccc2cc(CN3C(=O)C(C)SC3c3c(OC)cccc3OC)ccc2c1 (stereo not drawn) [Example 31, 2-(2,6-Dimethoxy-phenyl)-3-(6-methoxy-naphthalen-2-ylmethyl)-5-methyl-thiazolidin-4-one]
32 nM	1420 nM	COc1cccc(OC)c1C1SCC(=O)N1Cc1ccc(Oc2cnccn2)cc1 (stereo not drawn) [Example 279, 2-(2,6-Dimethoxy-phenyl)-3-[4-(pyrazin-2-yloxy)-benzyl]-thiazolidin-4-one]
11 nM	310 nM	COc1ccc2c(c1C1SCC(=O)N1Cc1ccc(OC(F)(F)F)cc1)OCO2 (stereo not drawn) [Example 12, 2-(5-Methoxy-benzo[1,3]dioxol-4-yl)-3-(4-trifluoromethoxy-benzyl)-thiazolidin-4-one]
18 nM	154 nM	COc1cccc(OC)c1C1SCC(=O)N1Cc1ccc2ccccc2n1 (stereo not drawn) [Example 27, 2-(2,6-Dimethoxy-phenyl)-3-quinolin-2-ylmethyl-thiazolidin-4-one]
7 nM	344 nM	COc1cccc(OC)c1C1SCC(=O)N1Cc1ccc(Oc2cc(C)ccn2)cc1 (stereo not drawn) [Example 284, 2-(2,6-Dimethoxy-phenyl)-3-[4-(4-methyl-pyridin-2-yloxy)-benzyl]-thiazolidin-4-one]
19 nM	2360 nM	COc1ccc2c(C)noc2c1C1SCC(=O)N1Cc1ccc(OC(F)(F)F)cc1 (stereo not drawn) [Example 22, 2-(6-Methoxy-3-methyl-benzo[d]isoxazol-7-yl)-3-(4-trifluoromethoxy-benzyl)-thiazolidin-4-one]
28 nM	204 nM	COc1ccc2nc(C)oc2c1C1SCC(=O)N1Cc1ccc(OC(F)(F)F)cc1 (stereo not drawn) [Example 23, 2-(6-Methoxy-2-methyl-benzooxazol-7-yl)-3-(4-trifluoromethoxy-benzyl)-thiazolidin-4-one]
24 nM	140 nM	CCOc1ccc(CN2C(=O)CSC2c2c(OC)cccc2OC)cc1 (stereo not drawn) [Example 6, 2-(2,6-Dimethoxy-phenyl)-3-(4-ethoxy-benzyl)-thiazolidin-4-one]
24 nM	263 nM	COc1cccc(OCCO)c1C1SCC(=O)N1Cc1ccc(OC(F)(F)F)cc1 (stereo not drawn) [Example 267, 2-[2-(2-Hydroxy-ethoxy)-6-methoxy-phenyl]-3-(4-trifluoromethoxy-benzyl)-thiazolidin-4-one]
